The test has as its target human MGL from HeLa cells (Homo sapiens (Human), UniProt Q99685). Kind of test: MGL in vitro activity assay ([glycerol-1,3-3H]-oleoyl glycerol cleavage, activated carbon filter). It is filed as biochemical. The settings on record: 300 nM [Glycerol-1,3-3H]-oleoyl glycerol, endogenously expressed MGL from HeLa cells, one hour incubation; read-out: MGL IC50. The procedure, abridged:
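Endogenous MGL in HeLa cells or homogenates was incubated with compound and 300 nM [glycerol-1,3-3H]-oleoyl glycerol for one hour. Reactions were filtered through activated carbon, and tritiated glycerol in the flow-through was counted as a measure of activity.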

From patent publication US11708359B2, “Monoacylglycerol lipase modulators” (Janssen Pharmaceutica NV, priority 2020, dated 2023) come the findings set out here.

Sequence of human MGL from HeLa cells (Q99685 whole entry): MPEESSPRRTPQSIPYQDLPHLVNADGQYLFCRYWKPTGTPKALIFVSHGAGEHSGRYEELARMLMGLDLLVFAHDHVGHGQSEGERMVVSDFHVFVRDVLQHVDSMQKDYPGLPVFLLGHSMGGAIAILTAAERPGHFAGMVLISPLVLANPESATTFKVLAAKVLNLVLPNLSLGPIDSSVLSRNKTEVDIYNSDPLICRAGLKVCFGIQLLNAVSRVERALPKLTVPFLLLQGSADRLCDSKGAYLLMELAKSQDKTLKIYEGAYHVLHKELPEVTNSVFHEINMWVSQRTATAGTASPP

In the case of `O=C1CC[C@]2(C[C@H](C(=O)N3C[C@@H]4[C@H](C3)[C@H]4c3ccc(C(F)(F)F)cc3)C2)N1` [Example 81, (2r,4S)-2-((1R,5S,6S)-6-(4-(Trifluoromethyl)phenyl)-3-azabicyclo[3.1.0]hexane-3-carbonyl)-5-azaspiro[3.4]octan-6-one], the IC50 stood at 206 nM.
On to `CC(C)(C)c1ccc([C@H]2[C@@H]3CN(C(=O)[C@H]4C[C@]5(CCC(=O)N5)C4)C[C@@H]32)cc1` [Example 83, (2r,4S)-2-((1R,5S,6S)-6-(4-(tert-Butyl)phenyl)-3-azabicyclo[3.1.0]hexane-3-carbonyl)-5-azaspiro[3.4]octan-6-one], for which the concentration for half-maximal inhibition (IC50) was 2.9 nM.
For `CC(C)c1cccc([C@H]2[C@@H]3CN(C(=O)[C@H]4C[C@]5(COC(=O)N5)C4)C[C@@H]32)c1` [Example 84, (2s,4S)-2-((1R,5S,6S)-6-(3-Isopropylphenyl)-3-azabicyclo[3.1.0]hexane-3-carbonyl)-7-oxa-5-azaspiro[3.4]octan-6-one] the value was 5.5 nM.
In the case of `Cc1ccc([C@H]2[C@@H]3CN(C(=O)[C@H]4C[C@]5(COC(=O)N5)C4)C[C@@H]32)cc1C(F)(F)F` [Example 85, (2s,4S)-2-((1R,5S,6S)-6-(4-Methyl-3-(trifluoromethyl)phenyl)-3-azabicyclo[3.1.0]hexane-3-carbonyl)-7-oxa-5-azaspiro[3.4]octan-6-one], the IC50 was 4.4 nM.
Take `CCc1ccc([C@H]2[C@@H]3CN(C(=O)[C@H]4C[C@]5(COC(=O)N5)C4)C[C@@H]32)cc1` [Example 86, (2s,4S)-2-((1R,5S,6S)-6-(4-Ethylphenyl)-3-azabicyclo[3.1.0]hexane-3-carbonyl)-7-oxa-5-azaspiro[3.4]octan-6-one]: the IC50 was 25 nM.
Turning to `CCc1ccc([C@H]2[C@@H]3CN(C(=O)[C@H]4C[C@]5(CCC(=O)N5)C4)C[C@@H]32)cc1` [Example 87, (2r,4S)-2-((1R,5S,6S)-6-(4-Ethylphenyl)-3-azabicyclo[3.1.0]hexane-3-carbonyl)-5-azaspiro[3.4]octan-6-one], the IC50 was determined as 131 nM.
Take `Cc1ccc([C@H]2[C@@H]3CN(C(=O)[C@H]4C[C@]5(COC(=O)N5)C4)C[C@@H]32)cc1C` [Example 88, (2s,4S)-2-((1R,5S,6S)-6-(3,4-Dimethylphenyl)-3-azabicyclo[3.1.0]hexane-3-carbonyl)-7-oxa-5-azaspiro[3.4]octan-6-one]: the IC50 amounted to 29 nM.
With `Cc1ccc([C@H]2[C@@H]3CN(C(=O)[C@H]4C[C@]5(CCC(=O)N5)C4)C[C@@H]32)cc1C` [Example 89, (2r,4S)-2-((1R,5S,6S)-6-(3,4-Dimethylphenyl)-3-azabicyclo[3.1.0]hexane-3-carbonyl)-5-azaspiro[3.4]octan-6-one], the IC50 is 178 nM.
For `CC(C)c1ccc([C@H]2[C@@H]3CN(C(=O)[C@H]4C[C@]5(COC(=O)N5)C4)C[C@@H]32)cc1` [Example 90, (2s,4S)-2-((1R,5S,6S)-6-(4-Isopropylphenyl)-3-azabicyclo[3.1.0]hexane-3-carbonyl)-7-oxa-5-azaspiro[3.4]octan-6-one], the IC50 was determined as 2.8 nM.
Regarding `CC(C)c1ccc([C@H]2[C@@H]3CN(C(=O)[C@H]4C[C@]5(CCC(=O)N5)C4)C[C@@H]32)cc1` [Example 91, (2r,4S)-2-((1R,5S,6S)-6-(4-Isopropylphenyl)-3-azabicyclo[3.1.0]hexane-3-carbonyl)-5-azaspiro[3.4]octan-6-one], the 50% inhibitory concentration (IC50) was 20 nM.
With `Cc1ccccc1[C@H]1[C@@H]2CN(C(=O)[C@H]3C[C@]4(COC(=O)N4)C3)C[C@@H]21` [Example 98, (2s,4S)-2-((1R,5S,6S)-6-(o-Tolyl)-3-azabicyclo[3.1.0]hexane-3-carbonyl)-7-oxa-5-azaspiro[3.4]octan-6-one], the IC50 was found to be 150 nM.
Take `CC(C)Cc1cccc([C@H]2[C@@H]3CN(C(=O)[C@H]4C[C@]5(COC(=O)N5)C4)C[C@@H]32)c1` [Example 101, (2s,4S)-2-((1R,5S,6S)-6-(3-Isobutylphenyl)-3-azabicyclo[3.1.0]hexane-3-carbonyl)-7-oxa-5-azaspiro[3.4]octan-6-one]: the IC50 is 1.5 nM.
For the compound `CC(C)(CO)c1cccc([C@H]2[C@@H]3CN(C(=O)[C@H]4C[C@]5(COC(=O)N5)C4)C[C@@H]32)c1` [Example 104, (2s,4S)-2-((1R,5S,6S)-6-(3-(1-Hydroxy-2-methylpropan-2-yl)phenyl)-3-azabicyclo[3.1.0]hexane-3-carbonyl)-7-oxa-5-azaspiro[3.4]octan-6-one], the half-maximal inhibitory concentration (IC50) amounted to 19 nM.
Consider `CC(C)(C(=O)O)c1cccc([C@H]2[C@@H]3CN(C(=O)[C@H]4C[C@]5(COC(=O)N5)C4)C[C@@H]32)c1` [Example 105], for which the IC50 came out at 300 nM.
For the compound `Cc1cc(C2CC2)ccc1[C@H]1[C@@H]2CN(C(=O)[C@H]3C[C@]4(COC(=O)N4)C3)C[C@@H]21` [Example 109, (2s,4S)-2-((1R,5S,6S)-6-(4-Cyclopropyl-2-methylphenyl)-3-azabicyclo[3.1.0]hexane-3-carbonyl)-7-oxa-5-azaspiro[3.4]octan-6-one], the IC50 was 1.6 nM.
For `Cc1ccc([C@H]2[C@@H]3CN(C(=O)[C@H]4C[C@]5(COC(=O)N5)C4)C[C@@H]32)cc1Cl` [Example 110, (2s,4S)-2-((1R,5S,6S)-6-(3-Chloro-4-methylphenyl)-3-azabicyclo[3.1.0]hexane-3-carbonyl)-7-oxa-5-azaspiro[3.4]octan-6-one] the value was 17 nM; for `CCc1cc([C@H]2[C@@H]3CN(C(=O)[C@H]4C[C@]5(COC(=O)N5)C4)C[C@@H]32)ccc1F` [Example 111, (2s,4S)-2-((1R,5S,6S)-6-(3-Ethyl-4-fluorophenyl)-3-azabicyclo[3.1.0]hexane-3-carbonyl)-7-oxa-5-azaspiro[3.4]octan-6-one], 11 nM; for `Cc1c([C@H]2[C@@H]3CN(C(=O)[C@H]4C[C@]5(COC(=O)N5)C4)C[C@@H]32)cccc1C(F)(F)F` [Example 113], 78 nM.
As for `Cc1ccc([C@H]2[C@@H]3CN(C(=O)[C@H]4C[C@]5(COC(=O)N5)C4)C[C@@H]32)cc1OC(F)(F)F` [Example 115, (2s,4S)-2-((1R,5S,6S)-6-(4-Methyl-3-(trifluoromethoxy)phenyl)-3-azabicyclo[3.1.0]hexane-3-carbonyl)-7-oxa-5-azaspiro[3.4]octan-6-one], the IC50 was determined as 5.2 nM.
For `CC(C)(C)c1cccc([C@H]2[C@@H]3CN(C(=O)[C@H]4C[C@]5(COC(=O)N5)C4)C[C@@H]32)n1` [Example 116, (2s,4S)-2-((1R,5S,6R)-6-(6-(tert-Butyl)pyridin-2-yl)-3-azabicyclo[3.1.0]hexane-3-carbonyl)-7-oxa-5-azaspiro[3.4]octan-6-one] the value was 5.2 nM.

As usually defined, the IC50 is the concentration at which inhibition is half-maximal.
